Measured values from US11446282B2, “Methods of treating mixed dyslipidemia and hypertriglycertdemia” (Kowa Company, Ltd., priority 2017, dated 2022).

Tested on: dyslipidemic patients with or without statin
Test: Example 4 pooled analysis of phase 2 and 3 studies: safety parameters
Type: in vivo, human
Procedure: The present study analyzed data combined from 6 randomized double-blind placebo-controlled studies that were conducted in Japan and continued for 12 weeks unless otherwise noted: a phase 2 study in 224 patients with a history of documented dyslipidemia and plasma TG of 200 mg/dL (2.26 mmol/L) or higher, randomized to placebo, pemafibrate 0.05, 0.1, 0.2, 0.4 mg/day, or fenofibrate 100 mg/day; a phase 3 study in 526 patients with dyslipidemia, high TG levels, and low HDL-C levels, randomized to placebo, pemafibrate 0.1, 0.2, or 0.4 mg/day, or fenofibrate 100 or 200 mg/day; a study in 188 patients with dyslipidemia, randomized to pitavastatin in combination with pemafibrate 0.1, 0.2, or 0.4 mg/day; a 24-week study in 423 patients with dyslipidemia, randomized to pemafibrate 0.2 mg/day (fixed dose) or 0.2 [0.4] mg/day (conditional up-titration) with any statin; a 24-week phase 3 study in 166 patients with type 2 diabetes and hypertriglyceridemia, randomized to placebo or pemafibrate 0.2 or 0.4 mg/day; and a study in 27 patients with hypertriglyceridemia and insulin resistance, randomized to pemafibrate 0.4 mg/day or placebo. All studies were approved by the Institutional Review Board for each study institution and were conducted in accordance with the Declaration of Helsinki and under the guidelines of Good Clinical Practice.
In this study, we evaluated the efficacy and safety of pemafibrate at doses of 0.1 mg/day, 0.2 mg/day, and 0.4 mg/day, with and without statin. The primary efficacy endpoint was percent change in TG from baseline to 12 weeks. The secondary efficacy endpoints were also assessed from baseline to 12 weeks: percent change in HDL-C, LDL-C, non-HDL-C, TC, RemL-C, Apo AI, Apo AII, Apo B, Apo B48, Apo CII, Apo CIII, Apo CIII/Apo CII, and Apo E; percent change in HPLC findings for CM-C, VLDL-C, cholesterol content in 4 subclasses of LDL (large, medium, small, and very small LDLs), and cholesterol content for 5 subclasses of HDL (very large, large, medium, small, and very small HDLs); and changes in fibrinogen and FGF21. The primary safety endpoints were the incidence of adverse events and adverse drug reactions. Secondary safety endpoints were percentage of values above the upper limit of normal range for AST, ALT, sCr and CK, and change in sCr eGFR, CK, AST, ALT, gamma-glutamyl transferase (γ-GT), alkaline phosphatase (ALP), and total bilirubin.
Patients with renal dysfunction were defined as those with baseline eGFR<60 mL/min/1.73 m^2. Analysis was stratified by the presence or absence of renal dysfunction in the concomitant statin group, and efficacy and safety of pemafibrate were evaluated. In efficacy and safety evaluations excluding AEs, ADRs, and cutoff values for AST, ALT, sCr, and CK, findings were combined for pemafibrate subgroups receiving doses of 0.1 mg/day, 0.2 mg/day, and 0.4 mg/day.
For each lipid parameter, gel filtration HPLC was performed at Skylight Biotech, Inc. Other measurements were performed at LSI Medience Corporation. The FAS was used for analyzing efficacy parameters of effects on lipids, fibrinogen, and FGF21. The safety analysis set was used for safety parameters and included all patients who received at least one dose of the study drug. For lipid parameters, fibrinogen, and FGF21, LS means (95% confidence interval) were calculated at Week 12 (LOCF) using analysis of covariance (ANCOVA) with baseline values as the co-variable within each category. For safety parameters, LS means (95% confidence interval) were calculated at Week 12 using ANCOVA with baseline values as the co-variable within each category. SAS version 9.2 was used for analyses.

[1] = Without Statin, 0.1 mg/day, n=82
[2] = Without Statin, 0.2 mg/day, n=202
[3] = Without Statin, 0.4 mg/day, n=173
[4] = Without Statin, 0.4 mg/day, n=174

CC[C@@H](Oc1cccc(CN(CCCOc2ccc(OC)cc2)c2nc3ccccc3o2)c1)C(=O)O [Pemafibrate, (2R)-2-[3-({1,3-benzoxazol-2-yl[3-(4-methoxyphenoxy)propyl]amino}methyl)phenoxy]butanoic acid]
ADE Leading to withdrawal, number of patients (With Statin, 0.1 mg/day, n=45): 1
ADE Leading to withdrawal, percentage of patients (With Statin, 0.1 mg/day, n=45): (2.2) percentage
ADE Serious, number of patients (With Statin, 0.1 mg/day, n=45): 0
ADE Total, number of patients (With Statin, 0.1 mg/day, n=45): 3
ADE Total, percentage of patients (With Statin, 0.1 mg/day, n=45): (6.7) percentage
AE Leading to withdrawal, number of patients (With Statin, 0.1 mg/day, n=45): 2
AE Leading to withdrawal, percentage of patients (With Statin, 0.1 mg/day, n=45): (4.4) percentage
AE Serious, number of patients (With Statin, 0.1 mg/day, n=45): 2
AE Serious, percentage of patients (With Statin, 0.1 mg/day, n=45): (4.4) percentage
AE Total, number of patients (With Statin, 0.1 mg/day, n=45): 29
AE Total, percentage of patients (With Statin, 0.1 mg/day, n=45): (64.4) percentage
ALT ≥ ULN × 3, number of patients (With Statin, 0.1 mg/day, n=45): 1
ALT ≥ ULN × 3, percentage of patients (With Statin, 0.1 mg/day, n=45): (2.2) percentage
AST ≥ ULN × 3, number of patients (With Statin, 0.1 mg/day, n=45): 0
CK ≥ 2.5 and < ULN × 5, number of patients (With Statin, 0.1 mg/day, n=45): 2
CK ≥ 2.5 and < ULN × 5, percentage of patients (With Statin, 0.1 mg/day, n=45): (4.4) percentage
CK ≥ 5 and < ULN × 10, number of patients (With Statin, 0.1 mg/day, n=45): 0
CK ≥ ULN × 10, number of patients (With Statin, 0.1 mg/day, n=45): 0
sCr ≥ ULN, number of patients (With Statin, 0.1 mg/day, n=45): 8
sCr ≥ ULN, percentage of patients (With Statin, 0.1 mg/day, n=45): (17.8) percentage
ADE Leading to withdrawal, number of patients (With Statin, 0.2 mg/day, n=382): 11
ADE Leading to withdrawal, percentage of patients (With Statin, 0.2 mg/day, n=382): (2.9) percentage
ADE Serious, number of patients (With Statin, 0.2 mg/day, n=382): 2
ADE Serious, percentage of patients (With Statin, 0.2 mg/day, n=382): (0.5) percentage
ADE Total, number of patients (With Statin, 0.2 mg/day, n=382): 36
ADE Total, percentage of patients (With Statin, 0.2 mg/day, n=382): (9.4) percentage
AE Leading to withdrawal, number of patients (With Statin, 0.2 mg/day, n=382): 12
AE Leading to withdrawal, percentage of patients (With Statin, 0.2 mg/day, n=382): (3.1) percentage
AE Serious, number of patients (With Statin, 0.2 mg/day, n=382): 6
AE Serious, percentage of patients (With Statin, 0.2 mg/day, n=382): (1.6) percentage
AE Total, number of patients (With Statin, 0.2 mg/day, n=382): 164
AE Total, percentage of patients (With Statin, 0.2 mg/day, n=382): (42.9) percentage
ALT ≥ ULN × 3, number of patients (With Statin, 0.2 mg/day, n=382): 0
AST ≥ ULN × 3, number of patients (With Statin, 0.2 mg/day, n=382): 1
AST ≥ ULN × 3, percentage of patients (With Statin, 0.2 mg/day, n=382): (0.3) percentage
CK ≥ 2.5 and < ULN × 5, number of patients (With Statin, 0.2 mg/day, n=382): 7
CK ≥ 2.5 and < ULN × 5, percentage of patients (With Statin, 0.2 mg/day, n=382): (1.6) percentage
CK ≥ 5 and < ULN × 10, number of patients (With Statin, 0.2 mg/day, n=382): 3
CK ≥ 5 and < ULN × 10, percentage of patients (With Statin, 0.2 mg/day, n=382): (0.6) percentage
CK ≥ ULN × 10, number of patients (With Statin, 0.2 mg/day, n=382): 1
CK ≥ ULN × 10, percentage of patients (With Statin, 0.2 mg/day, n=382): (0.3) percentage
sCr ≥ ULN, number of patients (With Statin, 0.2 mg/day, n=382): 61
sCr ≥ ULN, percentage of patients (With Statin, 0.2 mg/day, n=382): (16.0) percentage
ADE Leading to withdrawal, number of patients (With Statin, 0.4 mg/day, n=72): 0
ADE Serious, number of patients (With Statin, 0.4 mg/day, n=72): 0
ADE Total, number of patients (With Statin, 0.4 mg/day, n=72): 2
ADE Total, percentage of patients (With Statin, 0.4 mg/day, n=72): (2.8) percentage
AE Leading to withdrawal, number of patients (With Statin, 0.4 mg/day, n=72): 0
AE Serious, number of patients (With Statin, 0.4 mg/day, n=72): 0
AE Total, number of patients (With Statin, 0.4 mg/day, n=72): 34
AE Total, percentage of patients (With Statin, 0.4 mg/day, n=72): (47.2) percentage
ALT ≥ ULN × 3, number of patients (With Statin, 0.4 mg/day, n=72): 1
ALT ≥ ULN × 3, percentage of patients (With Statin, 0.4 mg/day, n=72): (1.4) percentage
AST ≥ ULN × 3, number of patients (With Statin, 0.4 mg/day, n=72): 1
AST ≥ ULN × 3, percentage of patients (With Statin, 0.4 mg/day, n=72): (1.4) percentage
CK ≥ 2.5 and < ULN × 5, number of patients (With Statin, 0.4 mg/day, n=72): 2
CK ≥ 2.5 and < ULN × 5, percentage of patients (With Statin, 0.4 mg/day, n=72): (2.8) percentage
CK ≥ 5 and < ULN × 10, number of patients (With Statin, 0.4 mg/day, n=72): 0
CK ≥ ULN × 10, number of patients (With Statin, 0.4 mg/day, n=72): 0
sCr ≥ ULN, number of patients (With Statin, 0.4 mg/day, n=72): 11
sCr ≥ ULN, percentage of patients (With Statin, 0.4 mg/day, n=72): (15.3) percentage
ADE Leading to withdrawal, number of patients [1]: 1
ADE Leading to withdrawal, percentage of patients [1]: (1.2) percentage
ADE Serious, number of patients [1]: 0
ADE Total, number of patients [1]: 3
ADE Total, percentage of patients [1]: (3.7) percentage
AE Leading to withdrawal, number of patients [1]: 2
AE Leading to withdrawal, percentage of patients [1]: (2.4) percentage
AE Serious, number of patients [1]: 1
AE Serious, percentage of patients [1]: (1.2) percentage
AE Total, number of patients [1]: 27
AE Total, percentage of patients [1]: (32.9) percentage
ALT ≥ ULN × 3, number of patients [1]: 0
AST ≥ ULN × 3, number of patients [1]: 0
CK ≥ 2.5 and < ULN × 5, number of patients [1]: 2
CK ≥ 2.5 and < ULN × 5, percentage of patients [1]: (2.4) percentage
CK ≥ 5 and < ULN × 10, number of patients [1]: 0
CK ≥ ULN × 10, number of patients [1]: 0
sCr ≥ ULN, number of patients [1]: 15
sCr ≥ ULN, percentage of patients [1]: (18.3) percentage
ADE Leading to withdrawal, number of patients [2]: 2
ADE Leading to withdrawal, percentage of patients [2]: (1.0) percentage
ADE Serious, number of patients [2]: 1
ADE Serious, percentage of patients [2]: (0.5) percentage
ADE Total, number of patients [2]: 14
ADE Total, percentage of patients [2]: (6.9) percentage
AE Leading to withdrawal, number of patients [2]: 3
AE Leading to withdrawal, percentage of patients [2]: (1.5) percentage
AE Serious, number of patients [2]: 4
AE Serious, percentage of patients [2]: (2.0) percentage
AE Total, number of patients [2]: 78
AE Total, percentage of patients [2]: (38.6) percentage
ALT ≥ ULN × 3, number of patients [2]: 0
AST ≥ ULN × 3, number of patients [2]: 0
CK ≥ 2.5 and < ULN × 5, number of patients [2]: 3
CK ≥ 2.5 and < ULN × 5, percentage of patients [2]: (1.5) percentage
CK ≥ 5 and < ULN × 10, number of patients [2]: 0
CK ≥ ULN × 10, number of patients [2]: 0
sCr ≥ ULN, number of patients [2]: 34
sCr ≥ ULN, percentage of patients [2]: (16.8) percentage
ALT ≥ ULN × 3, number of patients [3]: 0
AST ≥ ULN × 3, number of patients [3]: 1
AST ≥ ULN × 3, percentage of patients [3]: (0.6) percentage
CK ≥ 2.5 and < ULN × 5, number of patients [3]: 0
CK ≥ 5 and < ULN × 10, number of patients [3]: 1
CK ≥ 5 and < ULN × 10, percentage of patients [3]: (0.6) percentage
CK ≥ ULN × 10, number of patients [3]: 1
CK ≥ ULN × 10, percentage of patients [3]: (0.6) percentage
sCr ≥ ULN, number of patients [3]: 22
sCr ≥ ULN, percentage of patients [3]: (12.7) percentage
ADE Leading to withdrawal, number of patients [4]: 3
ADE Leading to withdrawal, percentage of patients [4]: (1.7) percentage
ADE Serious, number of patients [4]: 1
ADE Serious, percentage of patients [4]: (0.6) percentage
ADE Total, number of patients [4]: 16
ADE Total, percentage of patients [4]: (9.2) percentage
AE Leading to withdrawal, number of patients [4]: 6
AE Leading to withdrawal, percentage of patients [4]: (3.4) percentage
AE Serious, number of patients [4]: 2
AE Serious, percentage of patients [4]: (1.1) percentage
AE Total, number of patients [4]: 60
AE Total, percentage of patients [4]: (34.5) percentage
